# Experimental data published in US20230381122A1, “APPLICATION OF N1-DIHYDROCAFFEOYL-N10-CAFFEOYLSPERMIDINE IN PREPARATION OF DRUG, HEALTH PRODUCT OR FUNCTIONAL FOOD” (NINGXIA MEDICAL UNIVERSITY, priority 2022, published 2023).
# How the values were obtained:
# [1] = test system: PCPA-induced insomnia model of mice; assay: Righting reflex experiment with pentobarbital sodium: sleep latency and sleep duration; assay type: in vivo; details: for Sleep duration / Sleep latency: pentobarbital sodium 50 mg/kg i.p. one hour after administration on the 7th day, PCPA insomnia mice
# Experimental: (§1) The pharmacodynamic evaluation of N1-dihydrocaffeoyl-N10-caffeoylspermidine for improving sleep effect was performed in a mouse insomnia model induced by injection of para-chlorophenylalanine (PCPA). The sedative hypnotic effect of N1-dihydrocaffeoyl-N10-caffeoylspermidine in mice with insomnia were evaluated by behavioral evaluation methods, such as recording of the number of autonomous activities, recording of body weight and inducing sleep experiments in mice with pentobarbital sodium. Brain tissues was obtained to determine the levels of neurotransmitters 5-HT, 5-HIAA, GABA and Glu, and to explore the possible mechanism of the sleep improving effect of N1-dihydrocaffeoyl-N10-caffeoylspermidine.
# (§2) Healthy SPF grade male ICR mice (18-22 g) were obtained, which were provided by the animal experimental center of Ningxia Medical University (laboratory animal license number SCXK (Ningxia Medical University) 2020-0001). The mice were adaptively housed in a standard SPF grade laboratory with the same animal housing conditions for each group: ambient temperature (25° C.), relative humidity (50%-60%). The mice were free access to food and water.
# (§3) After adaptive feeding, for 2 days of continuous modeling, the normal control group was given normal saline (0.1 mL/10 g/d), and the remaining groups received an intraperitoneal injection of PCPA suspension (400 mg/kg/d).
# (§4) The mice in each group were administered sequentially from 8:00 am to 12:00 am daily for 7 days.
# (3) Righting reflex experiment to determine sleep duration: one hour after administration on the 7th day, mice in each group were intraperitoneally injected with pentobarbital sodium suspension (50 mg/kg), and the sleep latency and sleep duration of mice were recorded. (Sleep latency was recorded from the end of the intraperitoneal injection until the disappearance of the mouse righting reflex for more than 1 min; time from falling asleep to the recovery of the mouse righting reflex was recorded as sleep duration.)
# [2] = Body weight of mice, PCPA-induced insomnia model; assay type: in vivo; details: for Body weight, 3rd day of administration / Body weight, 7th day of administration: PCPA insomnia mice; for Body weight, after molding: after PCPA modeling, before administration; for Body weight, before molding: baseline before PCPA modeling
# Experimental: as §1, §2, §3, §4
# (2) Body weight: the body weight of mice in each group was recorded before modeling, after modeling, on the 3rd, 7th day of drug administration, respectively.
# 5-HIAA = 5-HIAA level in brain tissue by ELISA; assay type: in vivo, mice; details: for 5-HIAA: brain tissue, PCPA insomnia mice
# Experimental: as §1, §3, §4
# (§5) After administration for 7 days, the mice were sacrificed by cervical dislocation, the brains were removed by decapitation on an ice table, ground evenly with a tissue homogenizer, and normal saline was added to make 10% brain tissue homogenate. The homogenate was centrifuged at 3000 r/min for 15 min at 4° C., then supernatants were collected, and levels of neurotransmitters 5-HT, 5-HIAA, Glu, and GABA were determined by ELISA.
# Glu/GABA = Glu/GABA ratio in brain tissue; assay type: in vivo, mice; details: for Glu/GABA: brain tissue, PCPA insomnia mice
# Experimental: as §1, §3, §4, §5
# Glu = Glu level in brain tissue by ELISA; assay type: in vivo; details: PCPA insomnia mice
# Experimental: as §1, §3, §4, §5
# [3] = test system: PCPA-induced insomnia model of mice; assay: Number of autonomous activities of mice, PCPA-induced insomnia model; assay type: in vivo; details: for Number of autonomous activities, after last administration / Number of autonomous activities, before administration: number in 5 min; for Number of autonomous activities, after last administration: half an hour after administration on the 7th day, PCPA insomnia mice; for Number of autonomous activities, before administration: baseline after PCPA modeling
# Experimental: as §1, §2, §3, §4
# (1) Number of autonomous activities: after grouping as above, the number of autonomous activities of mice in 5 min was recorded after successful modeling and half an hour after administration on the 7th day, respectively. Mice were acclimatized into the apparatus for 3 min before each recording.
# GABA = GABA level in brain tissue by ELISA; assay type: in vivo, mice; details: for GABA: brain tissue, PCPA insomnia mice
# Experimental: as §1, §3, §4, §5
# 5-HT = 5-HT level in brain tissue by ELISA; assay type: in vivo, mice; details: for 5-HT: brain tissue, PCPA insomnia mice
# Experimental: as §1, §3, §4, §5
# [4] = 10 mg/kg/d for 7 days, listed as positive drug
# [5] = 10 mg/kg/d, listed as positive drug
# [6] = positive drug group (melatonin 10 mg/kg/d)
# [7] = 10 mg/kg/d for 7 days, 10 mg/kg/day
# [8] = 10 mg/kg/d for 7 days, listed as positive drug, 10 mg/kg/day
# [9] = groups at all doses (2, 40, 100 mg/kg/d), p<0.05
# [10] = high dose 100 mg/kg/d for 7 days
# [11] = medium dose 40 mg/kg/d for 7 days
# [12] = groups at all doses (2, 40, 100 mg/kg/d), p<0.001
structure (smiles),measurement,setting,value
"COc1ccc2[nH]cc(CCNC(C)=O)c2c1 [Positive drug, melatonin, reference compound]",Sleep duration,[1]; 10 mg/kg/d for 7 days,26.4 ± 6.92 min
same,Sleep latency,[1]; 10 mg/kg/d for 7 days,226.00 ± 18.42 s
same,Sleep duration,[1]; [4],increased significantly
same,Sleep latency,[1]; [4],significantly reduced
same,"Body weight, 3rd day of administration",[2]; 10 mg/kg/d,31.33 ± 4.21 g
same,"Body weight, 7th day of administration",[2]; 10 mg/kg/d,33.67 ± 3.80 g
same,"Body weight, 3rd day of administration",[2]; [5],increased significantly
same,"Body weight, 7th day of administration",[2]; [5],increased significantly
same,"Body weight, after molding",[2]; [6],26.26 ± 3.39 g
same,"Body weight, before molding",[2]; [6],26.51 ± 2.23 g
same,5-HIAA,5-HIAA; [7],37.15 ± 1.56 ng/g
same,5-HIAA,5-HIAA; [8],significantly increased
same,Glu/GABA,Glu/GABA; [7],8.51 ± 1.55
same,Glu/GABA,Glu/GABA; [8],significantly reduced
same,Glu,Glu; [7],53.52 ± 7.23 μmol/gprot
same,Glu,Glu; [8],53.52±7.23 μmol/gprot
same,"Number of autonomous activities, after last administration",[3]; 10 mg/kg/d for 7 days,174 ± 20.81
same,"Number of autonomous activities, after last administration",[3]; [4],significantly decreased
same,"Number of autonomous activities, before administration",[3]; [6],267 ± 15.15
same,GABA,GABA; [7],6.89 ± 1.11 nmol/L
same,GABA,GABA; [8],6.89 ± 1.11 nmol/L
"O=C(/C=C/c1ccc(O)c(O)c1)NCCCNCCCCNC(=O)CCc1ccc(O)c(O)c1 [(E)-3-(3,4-dihydroxyphenyl)-N-(3-((4-(3,4-dihydroxyphenyl)propanamido)butyl)amino) propyl) acrylamide]",Sleep duration compared with the model group,[1]; [9],increased significantly
same,Sleep duration,[1]; [10],17.5 ± 3.15 min
same,Sleep duration,[1]; low dose 2 mg/kg/d for 7 days,16.6 ± 9.53 min
same,Sleep duration,[1]; [11],19.9 ± 5.72 min
same,Sleep latency,[1]; [11],298.50 ± 29.08 s
same,"Body weight, after molding",[2]; high dose group (100 mg/kg/d),26.87 ± 2.71 g
same,"Body weight, after molding",[2]; low dose group (2 mg/kg/d),27.08 ± 3.74 g
same,"Body weight, after molding",[2]; medium dose group (40 mg/kg/d),27.33 ± 2.13 g
same,"Body weight, before molding",[2]; high dose group (100 mg/kg/d),26.18 ± 2.78 g
same,"Body weight, before molding",[2]; low dose group (2 mg/kg/d),26.74 ± 2.63 g
same,"Body weight, before molding",[2]; medium dose group (40 mg/kg/d),25.95 ± 1.99 g
same,Body weight on the 3rd day of administration compared with the model group,[2]; [12],increased significantly
same,"Body weight, 3rd day of administration",[2]; high dose 100 mg/kg/d,32.36 ± 2.39 g
same,"Body weight, 3rd day of administration",[2]; low dose 2 mg/kg/d,32.02 ± 2.63 g
same,"Body weight, 7th day of administration",[2]; low dose 2 mg/kg/d,31.83 ± 2.77 g
same,"Body weight, 3rd day of administration",[2]; medium dose 40 mg/kg/d,31.34 ± 1.76 g
same,"Body weight, 7th day of administration",[2]; medium dose 40 mg/kg/d,32.12 ± 1.44 g
same,5-HIAA,5-HIAA; [10],36.61 ± 1.84 ng/g
same,5-HIAA,5-HIAA; low dose 2 mg/kg/d for 7 days,33.79 ± 2.51 ng/g
same,5-HIAA,5-HIAA; [11],36.69 ± 2.00 ng/g
same,5-HIAA content in brain tissues compared with the model group,"5-HIAA; groups at all doses (2, 40, 100 mg/kg/d), p<0.01",significantly increased
same,Glu/GABA,Glu/GABA; [10],7.66 ± 1.03
same,Glu/GABA,Glu/GABA; low dose 2 mg/kg/d for 7 days,7.23 ± 1.90
same,Glu/GABA,Glu/GABA; [11],7.17 ± 1.20
same,Glu/GABA values in brain tissues compared with the model group,"Glu/GABA; groups at different doses (2, 40, 100 mg/kg/d), p<0.05",significantly reduced
same,Glu,Glu; [10],63.90 ± 2.88 μmol/gprot
same,Glu,Glu; low dose 2 mg/kg/d for 7 days,64.84 ± 4.18 μmol/gprot
same,"Number of autonomous activities, before administration",[3]; high dose group (100 mg/kg/d),248 ± 18.38
same,"Number of autonomous activities, before administration",[3]; low dose group (2 mg/kg/d),249 ± 22.30
same,"Number of autonomous activities, before administration",[3]; medium dose group (40 mg/kg/d),246 ± 16.13
same,Number of autonomous activities after last administration compared with before administration,[3]; [12],significantly decreased
same,"Number of autonomous activities, after last administration",[3]; [10],167 ± 43.35
same,"Number of autonomous activities, after last administration",[3]; low dose 2 mg/kg/d for 7 days,172 ± 26.39
same,"Number of autonomous activities, after last administration",[3]; [11],179 ± 17.43
same,5-HT,5-HT; [10],302.55 ± 17.00 ng/g
same,5-HT,5-HT; low dose 2 mg/kg/d for 7 days,271.37 ± 27.58 ng/g
same,5-HT,5-HT; [11],283.18 ± 9.86 ng/g
same,5-HT content in brain tissues compared with the model group,5-HT; [9],significantly increased
same,GABA,GABA; [10],9.66 ± 1.30 nmol/L
same,GABA,GABA; low dose 2 mg/kg/d for 7 days,8.53 ± 1.03 nmol/L
same,GABA,GABA; [11],9.69 ± 0.98 nmol/L
same,GABA content in brain tissues compared with the model group,"GABA; groups at different doses (2, 40, 100 mg/kg/d), p<0.01",significantly increased
